The results in this text go back to ChEMBL document CHEMBL1201862, “PubChem BioAssay data set” (2004).

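Where inhibition never reached the appropriate level, the endpoint shown equals the highest concentration tested. Otherwise, values were interpolated linearly from a five-concentration, 48-hour dose response in 96-well plates. At the GI50, growth is halved.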 Active and inactive are the calls of the source. No stated cut-off is given here; in the data, active = GI50 up to about 1.1 µM and inactive = higher.

Some test systems named below: DLD-1; DMS-114; DMS-273; KM-20L2; LXFL 529; M19-MEL; RXF 631; SNB-78; XF498.
Holding throughout (test): NCI tumour cell line growth inhibition, 48 h

For the molecule `O=C1NC2C(=CC(O)C(O)C2O)c2cc3c(cc21)OCO3` (stereo not given), the GI50 in the assay on DLD-1 was 0.255 µM (active); in the assay with DMS-114 it was 0.43 µM (active); with DMS-273 it was 0.436 µM (active); in the assay with KM-20L2, 0.305 µM (active); with LXFL 529, 0.43 µM (active); in the assay on M19-MEL, 0.251 µM (active). The GI50 with RXF 631 was 0.433 µM (active); in the assay on SNB-78 it was 0.569 µM (active); with XF498, 0.171 µM (active).
As for `Cc1ccc2c(C)c3ccc4ccccc4c3c[n+]2c1.[O-][Cl+3]([O-])([O-])[O-]`, the GI50 with DLD-1 is 37.8 µM (inactive); in the assay with DMS-114, 10.6 µM (inactive); with DMS-273, 11.5 µM (inactive); in the assay with KM-20L2, 33.3 µM (inactive); in the assay on LXFL 529 it was 9.1 µM (inactive); in the assay with M19-MEL, 4.88 µM (inactive). Moreover, the GI50 in the assay on SNB-78 was 41.4 µM (inactive).
Regarding `COC(=O)C(/C(=N/N)C(=O)Nc1cc(Cl)ccc1Cl)c1nc2ccc([N+](=O)[O-])cc2nc1O` (stereo not given), the GI50 in the assay with DMS-114 is 50.2 µM (inactive); in the assay with DMS-273, 57.3 µM (inactive); in the assay with KM-20L2, 49.9 µM (inactive); in the assay on LXFL 529 it was 48 µM (inactive); in the assay on SNB-78, > 100 µM (inactive); with XF498, > 100 µM (inactive).
Regarding `N#Cc1ccc(/C=N/C23CC4CC(CC(C4)C2)C3)cc1`, the GI50 with DMS-114 is 56 µM (inactive); with DMS-273, 98.2 µM (inactive); with KM-20L2, > 100 µM (inactive); with M19-MEL, > 100 µM (inactive); with RXF 631 it was 32.5 µM (inactive); in the assay with SNB-78 it was > 100 µM (inactive).
On to `CC(=O)C1C(=O)N(C(C)C)C[C@@H]2CCC(=O)C[C@H]12` (stereo not given in full), for which the GI50 in the assay on DLD-1, with DMS-114, in the assay with DMS-273, with LXFL 529, in the assay on M19-MEL and in the assay on RXF 631 was > 100 µM (inactive) in each case. Further, the GI50 in the assay with SNB-78 and in the assay on XF498 was > 100 µM (inactive) each time.
As to `CCN(N=O)C1C2(CCCC2)NC(=O)C12CCCC2` (stereo not given), the GI50 in the assay on DLD-1, with DMS-114, with KM-20L2, in the assay with LXFL 529, in the assay on M19-MEL and in the assay on RXF 631 was > 100 µM (inactive) each time. The GI50 in the assay with SNB-78 and in the assay on XF498 was > 100 µM (inactive) each time.
For `CC(C)C1CCC/C=C/C=C/C=C/C=C/C(OC2OC(C)C(O)C(N)C2O)CC2OC(O)(CC(O)CC(O)C(O)CCC(=O)O1)CC(O)C2C(=O)O` (stereo not given), the GI50 in the assay on DMS-114, in the assay with KM-20L2, with LXFL 529, in the assay on M19-MEL and in the assay with SNB-78 was > 52.5 µM (inactive) throughout.
On to `C=CNC(=O)NC(=O)CSc1nc(=O)c(-c2ccccc2NC(=O)C(F)(F)F)n[nH]1`, for which the GI50 in the assay on DLD-1 is 2.81 µM (inactive); with DMS-114 it was 21.1 µM (inactive); in the assay with DMS-273, 43.9 µM (inactive); in the assay on LXFL 529, > 100 µM (inactive); in the assay on M19-MEL, > 100 µM (inactive); with SNB-78 it was 25.2 µM (inactive). Besides, in the assay on XF498, the GI50 was 33.9 µM (inactive).
For `Cc1c2n(c(=O)[nH]c1=O)C1OC(CO)C(O2)C1O` (stereo not given), the GI50 in the assay with DLD-1, in the assay with DMS-114, in the assay with DMS-273, in the assay on KM-20L2, in the assay on LXFL 529 and in the assay with M19-MEL was > 100 µM (inactive) in each case. The GI50 in the assay with SNB-78 was > 100 µM (inactive).
As to `CCc1c(Cc2[nH]c(Cc3[nH]c(C=O)c(C)c3CC)c(CC)c2CC)[nH]c(C=O)c1C`, the GI50 in the assay with DLD-1, with DMS-114, in the assay with DMS-273, with KM-20L2, in the assay with LXFL 529 and in the assay with M19-MEL was > 100 µM (inactive) in each case. The GI50 in the assay with SNB-78 and with XF498 was > 100 µM (inactive) each time.
With `O=C(O)c1ccccc1/N=N/c1ccc2oc(=O)c(C(=O)Nc3ccccc3)cc2c1`, the GI50 is 40.9 µM (inactive) with DLD-1; 25.1 µM (inactive) in the assay with DMS-114; 39 µM (inactive) in the assay with DMS-273; 24.8 µM (inactive) in the assay on KM-20L2; 33.3 µM (inactive) with M19-MEL; 45.8 µM (inactive) in the assay on XF498.
As to `COC(=O)Cc1cc(=O)oc2c1C(=O)CCC2`, the GI50 with DLD-1, with DMS-114, in the assay on DMS-273, with KM-20L2, in the assay with LXFL 529 and in the assay with M19-MEL was > 100 µM (inactive) in each case. In addition, the GI50 in the assay with SNB-78 and in the assay on XF498 was > 100 µM (inactive) each time.
In the case of `Cc1c(C(=O)/C=C/c2c(Cl)cccc2Cl)c(=O)n(-c2ccccc2)n1C`, the GI50 with DMS-114 is 22.7 µM (inactive); in the assay with DMS-273, 4.82 µM (inactive); in the assay with KM-20L2, 19.6 µM (inactive); with LXFL 529, 5.47 µM (inactive); with M19-MEL, 8.55 µM (inactive); with SNB-78, 6.24 µM (inactive). Also, the GI50 in the assay on XF498 was 19.6 µM (inactive).
Take `CCCN(CCCN)/[N+]([O-])=N\O`: the GI50 in the assay with DLD-1 was > 100 µM (inactive); with DMS-114, > 100 µM (inactive); in the assay on DMS-273 it was > 100 µM (inactive); in the assay with KM-20L2, 0.4 µM (active); in the assay on LXFL 529 it was > 100 µM (inactive); in the assay on M19-MEL it was > 100 µM (inactive). Moreover, the GI50 in the assay with RXF 631 and in the assay with SNB-78 was > 100 µM (inactive) in each case.
For `C[S+](C)CCOC(=O)C(=[N+]=[N-])c1ccc([N+](=O)[O-])cc1`, the GI50 in the assay on DMS-114, in the assay on DMS-273, in the assay with KM-20L2, with LXFL 529, in the assay with M19-MEL and with RXF 631 was > 100 µM (inactive) each time. Further, the GI50 with SNB-78 and in the assay on XF498 was > 100 µM (inactive) in each case.
For `COC1(OC)C(N(C)C)=C(Cl)C(=O)/C1=C/C=O`, the GI50 was > 100 µM (inactive) in the assay on DLD-1; > 100 µM (inactive) with DMS-114; > 100 µM (inactive) in the assay with DMS-273; > 100 µM (inactive) in the assay on KM-20L2; > 100 µM (inactive) with LXFL 529; 74.6 µM (inactive) in the assay with M19-MEL.
In the case of `O=C1c2ccccc2C(=O)c2sc(Nc3ccc([N+](=O)[O-])cc3)nc21`, the GI50 with DLD-1 was 4.19 µM (inactive); with DMS-114 it was 2.49 µM (inactive); in the assay with DMS-273 it was 7.69 µM (inactive); in the assay with KM-20L2 it was 22.7 µM (inactive); in the assay with LXFL 529, 1.66 µM (inactive); in the assay with M19-MEL, 1.55 µM (inactive). Also, the GI50 with RXF 631 is 19.5 µM (inactive); with SNB-78, 10 µM (inactive); with XF498, 2.17 µM (inactive).
Turning to `CC(C)(C)c1cc(C(P(=O)(O)O)P(=O)(O)O)cc(C(C)(C)C)c1O`, the GI50 in the assay with DLD-1, in the assay on DMS-114, in the assay with DMS-273, in the assay on KM-20L2, with LXFL 529 and in the assay on M19-MEL was > 100 µM (inactive) in each case. In addition, the GI50 in the assay with SNB-78 was > 100 µM (inactive).
For `Nc1ccn(C2(CO)C=C(CO)C(O)C2O)c(=O)n1` (stereo not given), the GI50 in the assay with DLD-1, with DMS-114, in the assay on DMS-273, in the assay on KM-20L2, in the assay with LXFL 529 and in the assay with M19-MEL was > 25.8 µM (inactive) throughout. Moreover, the GI50 with SNB-78 is > 25.8 µM (inactive).
Consider `COc1cc(O)c2c(c1)C(=O)C1=C(C2=O)C(O)C[C@@](C)(O)C1` (stereo not given in full), for which the GI50 with DLD-1 is 0.229 µM (active); in the assay with DMS-114 it was 1.5 µM (inactive); with DMS-273, 1.57 µM (inactive); with KM-20L2, 3.36 µM (inactive); in the assay on LXFL 529, 0.582 µM (active); with M19-MEL, 0.452 µM (active). Besides, the GI50 in the assay on SNB-78 and with XF498 was 1.9 µM (inactive) each time.
